Assay results as given in patent US20210188843A1, “QUINOLINE COMPOUNDS AND THEIR PREPARATION AND USE AS ANTIMALARIAL AGENTS” (The United States of America,as represented by the …, priority 2018, published 2021).
In brackets after ≈: the same amount, converted by molar mass. Where two headings read alike, the source gives them in different places.

What was measured:
[1] = system: Asexual parasites of P. falciparum strain 3D7; assay: In vitro drug activity on asexual parasites (SYBR Green assay); type: cell-based; details: Plasmodium falciparum, P. falciparum 3D7 asexual stage, 72 h, read-out: Asexual EC50
In short: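 Growth was measured by SYBR Green I fluorescence (excitation 490 nm, emission 520 nm) after freeze-thaw lysis and 30 min staining at room temperature. Parasites (0.5% parasitemia, 2% hematocrit) had been incubated 72 h with compound, DMSO below 0.5%. Conditions were run in duplicate with no-drug and RBC-alone controls.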

[2] = Microsomal stability (rat); type: in vitro ADME; details: rat microsomes
PAMPA permeability = type: in vitro ADME
Solubility pH 7.4 = type: physicochemical; details: aqueous buffer
[3] = Table 3, read-out: Microsomal Stability (rat) T1/2
[4] = Table 1, read-out: Microsomal Stability (rat) T1/2
[5] = Table 2, read-out: Microsomal Stability (rat) T1/2

Row | SMILES | EC50 ([1]; Table 1) | half-life [2, 4] | Papp (PAMPA permeability; Table 1) | solubility (Solubility pH 7.4; Table 1) | further results
1 | Cn1c(=N)n(-c2cncnc2)c2c3cc(-c4ccc(C(F)(F)F)nc4)ccc3ncc21 |  |  |  |  | EC50 ([1]; Table 3): 560 nM; half-life [2, 3]: > 30 min; Papp (PAMPA permeability; Table 3): 541 ×10⁻⁶ cm/s; solubility (Solubility pH 7.4; Table 3): 31 µg/mL (≈ 73.6 µM)
2 | Cc1ccc(C#N)cc1-n1/c(=N/C(=N)N)n(C)c2cnc3ccc(-c4ccc(F)cc4)cc3c21 [Compound 56, (E)-1-(1-(5-cyano-2-methylphenyl)-8-(4-fluorophenyl)-3-methyl-1,3-dihydro-2H-imidazo[4,5-c]quinolin-2-ylidene)guanidine] | 1460 nM | > 30 min | 1.7 ×10⁻⁶ cm/s | > 44 µg/mL | 
3 | N=c1ccc2cnc3ccc(-c4ccc(Cl)cc4)cc3c2n1-c1cccc(Cl)c1 |  |  |  |  | EC50 ([1]; Table 2): 178 nM; half-life [2, 5]: > 30 min; Papp (PAMPA permeability; Table 2): 1240 ×10⁻⁶ cm/s; solubility (Solubility pH 7.4; Table 2): 20.7 µg/mL (≈ 49.7 µM)
4 | CC(=O)N1CCN(c2cc(C)c(-n3c(=N)n(C)c4cnc5ccc(-c6ccc(Cl)cc6)cc5c43)cc2C#N)CC1 [Compound 109, 2-(4-acetylpiperazin-1-yl)-5-(8-(4-chlorophenyl)-2-imino-3-methyl-2,3-dihydro-1H-imidazo[4,5-c]quinolin-1-yl)-4-methylbenzonitrile] | 4.33 nM | > 30 min | 838 ×10⁻⁶ cm/s | < 1 µg/mL | 
5 | CC(=O)N1CCN(c2ncc(-n3c(=N)n(C)c4cnc5ccc(-c6ccc(Cl)cc6)cc5c43)cn2)CC1 |  |  |  |  | EC50 ([1]; Table 3): 391 nM; half-life [2, 3]: > 30 min; Papp (PAMPA permeability; Table 3): 292 ×10⁻⁶ cm/s; solubility (Solubility pH 7.4; Table 3): 22.9 µg/mL (≈ 44.6 µM)
6 | Cn1c(=N)n(-c2ccc(N3CCNCC3)c(C#N)c2)c2c3cc(-c4ccc(Cl)cc4)ccc3ncc21 [Compound 49, 5-(8-(4-chlorophenyl)-2-imino-3-methyl-2,3-dihydro-1H-imidazo[4,5-c]quinolin-1-yl)-2-(piperazin-1-yl)benzonitrile] | 58.2 nM | > 30 min | 4.9 ×10⁻⁶ cm/s | 1 µg/mL (≈ 2.02 µM) | 
7 | CCC(=O)/N=c1\n(C)c2cnc3ccc(-c4ccc(Cl)cc4)cc3c2n1-c1cc(C#N)ccc1C [Compound 9, (E)-N-(8-(4-chlorophenyl)-1-(5-cyano-2-methylphenyl)-3-methyl-1,3-dihydro-2H-imidazo[4,5-c]quinolin-2-ylidene)propionamide] | 38.5 nM | > 30 min | 526 ×10⁻⁶ cm/s | < 1 µg/mL | 
8 | Cc1ccc(C#N)cc1-n1c(=N)n(C)c2cnc3ccc(-c4ccc(Cl)c(Cl)c4)cc3c21 [Compound 42, 3-(8-(3,4-dichlorophenyl)-2-imino-3-methyl-2,3-dihydro-1H-imidazo[4,5-c]quinolin-1-yl)-4-methylbenzonitrile] | 574 nM | > 30 min | 1650 ×10⁻⁶ cm/s | < 1 µg/mL | 
9 | Cc1ccc(-c2ccc3ncc4c(c3c2)n(-c2cc(C#N)c(N3CCOCC3)cc2C)c(=N)n4C)cc1 [Compound 145, 5-(2-imino-3-methyl-8-(p-tolyl)-2,3-dihydro-1H-imidazo[4,5-c]quinolin-1-yl)-4-methyl-2-morpholinobenzonitrile] | 142 nM | > 30 min | 1140 ×10⁻⁶ cm/s | 16.7 µg/mL (≈ 34.2 µM) | 
10 | Cc1ccc(C(F)(F)F)cc1-n1c(=N)n(C)c2cnc3ccc(-c4ccc(Cl)cc4)cc3c21 [Compound 27, 8-(4-chlorophenyl)-3-methyl-1-(2-methyl-5-(trifluoromethyl)phenyl)-1,3-dihydro-2H-imidazo[4,5-c]quinolin-2-imine] | 138 nM | > 30 min | 1610 ×10⁻⁶ cm/s | < 1 µg/mL | 
11 | Cn1c(=N)n(-c2cccc(CN3CCNCC3)c2)c2c3cc(-c4ccc(Cl)cc4)ccc3ncc21 [Compound 85, 8-(4-chlorophenyl)-3-methyl-1-(3-(piperazin-1-ylmethyl)phenyl)-1,3-dihydro-2H-imidazo[4,5-c]quinolin-2-imine] | 702 nM | > 30 min | 11.2 ×10⁻⁶ cm/s | > 48 µg/mL | 
12 | COC(=O)/N=c1\n(C)c2cnc3ccc(-c4ccc(C)nc4)cc3c2n1-c1cc(C#N)ccc1C [Compound 125, methyl (E)-(1-(5-cyano-2-methylphenyl)-3-methyl-8-(6-methylpyridin-3-yl)-1,3-dihydro-2H-imidazo[4,5-c]quinolin-2-ylidene)carbamate] | 1.2 nM | > 30 min | 243 ×10⁻⁶ cm/s | 12.5 µg/mL (≈ 27 µM) | 
13 | Cc1ccc(C#N)cc1-n1c(=N)n(C)c2cnc3ccc(-c4ccc(F)c(F)c4)cc3c21 [Compound 43, 3-(8-(3,4-difluorophenyl)-2-imino-3-methyl-2,3-dihydro-1H-imidazo[4,5-c]quinolin-1-yl)-4-methylbenzonitrile] | 118 nM | > 30 min | 837 ×10⁻⁶ cm/s | 8.3 µg/mL (≈ 19.5 µM) | 
14 | Cc1ncncc1-n1c(=N)n(C)c2cnc3ccc(-c4cccc(F)c4)cc3c21 |  |  |  |  | EC50 ([1]; Table 3): 1240 nM; half-life [2, 3]: > 30 min; Papp (PAMPA permeability; Table 3): 1100 ×10⁻⁶ cm/s; solubility (Solubility pH 7.4; Table 3): > 38 µg/mL
15 | Cc1cc(N2CCN(C)CC2)c(C#N)cc1-n1c(=N)n(C)c2cnc3ccc(-c4ccc(Cl)cc4)cc3c21 [Compound 108, 5-(8-(4-chlorophenyl)-2-imino-3-methyl-2,3-dihydro-1H-imidazo[4,5-c]quinolin-1-yl)-4-methyl-2-(4-methylpiperazin-1-yl)benzonitrile] | 464 nM | > 30 min | 255 ×10⁻⁶ cm/s | 37.6 µg/mL (≈ 72 µM) | 
16 | C/N=c1\ccc2cnc3ccc(-c4ccc(Cl)cc4)cc3c2n1-c1ccc(C(=O)NC2CC2)cc1 |  |  |  |  | EC50 ([1]; Table 2): 1210 nM; half-life [2, 5]: 17.4 min; Papp (PAMPA permeability; Table 2): 130 ×10⁻⁶ cm/s; solubility (Solubility pH 7.4; Table 2): < 1 µg/mL
17 | Cn1c(=N)n(C2CC(N3CCOCC3)C2)c2c3cc(-c4ccc(Cl)cc4)ccc3ncc21 (centres unmarked) [Compound 58, 8-(4-chlorophenyl)-3-methyl-1-(3-morpholinocyclobutyl)-1,3-dihydro-2H-imidazo[4,5-c]quinolin-2-imine] | 2670 nM | > 30 min | 816 ×10⁻⁶ cm/s | > 44 µg/mL | 
18 | COc1ccc(-c2ccc3ncc4c(c3c2)n(-c2nccnc2C)c(=N)n4C)cc1OC |  |  |  |  | EC50 ([1]; Table 3): 58 nM; Papp (PAMPA permeability; Table 3): 1240 ×10⁻⁶ cm/s; solubility (Solubility pH 7.4; Table 3): > 63 µg/mL
19 | Cn1c(=N)n(-c2ccccc2O)c2c3cc(-c4ccc(Cl)cc4)ccc3ncc21 [Compound 83, 2-(8-(4-chlorophenyl)-2-imino-3-methyl-2,3-dihydro-1H-imidazo[4,5-c]quinolin-1-yl)phenol] | 593 nM |  | 859 ×10⁻⁶ cm/s | < 1 µg/mL | 
20 | Cc1ccc(C(N)=O)cc1-n1c(=N)n(C)c2cnc3ccc(-c4ccc(Cl)cc4)cc3c21 [Compound 92, 3-(8-(4-chlorophenyl)-2-imino-3-methyl-2,3-dihydro-1H-imidazo[4,5-c]quinolin-1-yl)-4-methylbenzamide] |  | > 30 min | 2 ×10⁻⁶ cm/s | > 44 µg/mL | 
21 | Cc1cc(N2CCNCC2)c(C#N)cc1-n1c(=N)n(C)c2cnc3ccc(-c4ccc(Cl)cc4)cc3c21 [Compound 14, 5-(8-(4-chlorophenyl)-2-imino-3-methyl-2,3-dihydro-1H-imidazo[4,5-c]quinolin-1-yl)-4-methyl-2-(piperazin-1-yl)benzonitrile] | 175 nM | > 30 min |  | < 1 µg/mL | 
22 | Cn1c(=N)n(-c2nccc(O)n2)c2c3cc(-c4cccc(F)c4)ccc3ncc21 |  |  |  |  | EC50 ([1]; Table 3): 18800 nM; half-life [2, 3]: > 30 min; solubility (Solubility pH 7.4; Table 3): < 1 µg/mL
23 | Cn1c(=N)n(-c2cc(C#N)ccc2OC(F)(F)F)c2c3cc(-c4ccc(Cl)cc4)ccc3ncc21 [Compound 54, 3-(8-(4-chlorophenyl)-2-imino-3-methyl-2,3-dihydro-1H-imidazo[4,5-c]quinolin-1-yl)-4-(trifluoromethoxy)benzonitrile] | 1420 nM | > 30 min |  | < 1 µg/mL | 
24 | COc1ccccc1-n1c(=N)n(C)c2cnc3ccc(-c4ccc(Cl)cc4)cc3c21 [Compound 82, 8-(4-chlorophenyl)-1-(2-methoxyphenyl)-3-methyl-1,3-dihydro-2H-imidazo[4,5-c]quinolin-2-imine] | 1670 nM | > 30 min |  | > 41 µg/mL | 
25 | COc1cccc(-n2c(=N)n(C)c3cnc4ccc(-c5ccc(Cl)cc5)cc4c32)c1 [Compound 64, 8-(4-chlorophenyl)-1-(3-methoxyphenyl)-3-methyl-1,3-dihydro-2H-imidazo[4,5-c]quinolin-2-imine] | 1300 nM | > 30 min |  | 20.8 µg/mL (≈ 50.1 µM) | 
